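Tested at 5 concentrations; 48 h exposure; 96-well plates; endpoints linearly interpolated, else capped at highest concentration. At the GI50, growth is halved. Definition used: TGI = concentration required for complete inhibition of growth.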
Legend:
Assay in all cases: NCI tumour cell line growth inhibition, 48 h
786-0 renal = tested on: 786-0 renal
A498 renal = tested on: A498 renal
A549 NSCLC = tested on: A549 NSCLC
ACHN renal = tested on: ACHN renal
BT-549 breast = tested on: BT-549 breast
CAKI-1 renal = tested on: CAKI-1 renal
CCRF-CEM leukemia = tested on: CCRF-CEM leukemia
COLO 205 colon = tested on: COLO 205 colon
DU-145 prostate = tested on: DU-145 prostate
EKVX NSCLC = tested on: EKVX NSCLC
HCC-2998 colon = tested on: HCC-2998 colon
HCT-116 colon = tested on: HCT-116 colon
HCT-15 colon = tested on: HCT-15 colon
HL-60(TB) leukemia = tested on: HL-60(TB) leukemia
HOP-62 NSCLC = tested on: HOP-62 NSCLC
HOP-92 NSCLC = tested on: HOP-92 NSCLC
HS 578T breast = tested on: HS 578T breast
HT29 colon = tested on: HT29 colon
IGROV1 ovarian = tested on: IGROV1 ovarian
K-562 leukemia = tested on: K-562 leukemia
KM12 colon = tested on: KM12 colon
LOX IMVI melanoma = tested on: LOX IMVI melanoma
M14 melanoma = tested on: M14 melanoma
MALME-3M melanoma = tested on: MALME-3M melanoma
MCF7 breast = tested on: MCF7 breast
MDA-MB-231 breast = tested on: MDA-MB-231 breast
MDA-MB-435 = tested on: MDA-MB-435
MOLT-4 leukemia = tested on: MOLT-4 leukemia
NCI-H226 lung = tested on: NCI-H226 lung
NCI-H23 lung = tested on: NCI-H23 lung
NCI-H460 lung = tested on: NCI-H460 lung
NCI-H522 lung = tested on: NCI-H522 lung
NCI/ADR-RES ovarian = tested on: NCI/ADR-RES ovarian
OVCAR-3 ovarian = tested on: OVCAR-3 ovarian
OVCAR-4 ovarian = tested on: OVCAR-4 ovarian
OVCAR-5 ovarian = tested on: OVCAR-5 ovarian
OVCAR-8 ovarian = tested on: OVCAR-8 ovarian
PC-3 prostate = tested on: PC-3 prostate
RPMI-8226 leukemia = tested on: RPMI-8226 leukemia
RXF 393 renal = tested on: RXF 393 renal
SF-268 CNS = tested on: SF-268 CNS
SF-295 CNS = tested on: SF-295 CNS
SF-539 CNS = tested on: SF-539 CNS
SK-MEL-2 melanoma = tested on: SK-MEL-2 melanoma
SK-MEL-5 melanoma = tested on: SK-MEL-5 melanoma
SK-OV-3 ovarian = tested on: SK-OV-3 ovarian
SN12C renal = tested on: SN12C renal
SNB-19 CNS = tested on: SNB-19 CNS
SNB-75 CNS = tested on: SNB-75 CNS
SR leukemia = tested on: SR leukemia
SW-620 colon = tested on: SW-620 colon
T-47D breast = tested on: T-47D breast
TK-10 renal = tested on: TK-10 renal
U251 CNS = tested on: U251 CNS
UACC-257 melanoma = tested on: UACC-257 melanoma
UACC-62 melanoma = tested on: UACC-62 melanoma
UO-31 renal = tested on: UO-31 renal

For `c1cc(OCCN2CCCC2)ccc1CNc1ccc2nc(CCC3CCCCC3)[nH]c2c1`, which GI50 (786-0 renal) is on record?
Its GI50 is 1570 nM.

What about the TGI (786-0 renal) of the same molecule?
The TGI was 3270 nM.

What about the GI50 (A498 renal) of the same molecule?
The GI50 was 1150 nM.

What about the TGI (A498 renal) of the same molecule?
The TGI was 2770 nM.

And the GI50 (A549 NSCLC)?
The GI50 was 2470 nM.

What about the TGI (A549 NSCLC) of the same molecule?
The TGI was 7520 nM.

What about the GI50 (ACHN renal) of the same molecule?
The GI50 was 2290 nM.

And the TGI (ACHN renal)?
The TGI was 5990 nM.

And the GI50 (BT-549 breast)?
Its GI50 is 1560 nM.

And the TGI (BT-549 breast)?
The TGI was 3170 nM.

What about the GI50 (CAKI-1 renal) of the same molecule?
Its GI50 is 1790 nM.

And the TGI (CAKI-1 renal)?
Its TGI is 3380 nM.

What about the GI50 (CCRF-CEM leukemia) of the same molecule?
The GI50 was 1470 nM.

And the TGI (CCRF-CEM leukemia)?
The TGI was 6900 nM.

And the GI50 (COLO 205 colon)?
The GI50 was 1700 nM.

And the TGI (COLO 205 colon)?
Its TGI is 3350 nM.

What about the GI50 (DU-145 prostate) of the same molecule?
The GI50 was 3430 nM.

What about the TGI (DU-145 prostate) of the same molecule?
Its TGI is 12400 nM.

And the GI50 (EKVX NSCLC)?
Its GI50 is 1860 nM.

And the TGI (EKVX NSCLC)?
The TGI was 6510 nM.

And the GI50 (HCC-2998 colon)?
Its GI50 is 2030 nM.

What about the TGI (HCC-2998 colon) of the same molecule?
Its TGI is 4290 nM.

What about the GI50 (HCT-116 colon) of the same molecule?
The GI50 was 1430 nM.

What about the TGI (HCT-116 colon) of the same molecule?
The TGI was 3200 nM.

What about the GI50 (HCT-15 colon) of the same molecule?
Its GI50 is 1550 nM.

And the TGI (HCT-15 colon)?
The TGI was 3700 nM.

What about the GI50 (HL-60(TB) leukemia) of the same molecule?
Its GI50 is 1790 nM.

And the TGI (HL-60(TB) leukemia)?
The TGI was 3720 nM.

What about the GI50 (HOP-62 NSCLC) of the same molecule?
The GI50 was 1710 nM.

What about the TGI (HOP-62 NSCLC) of the same molecule?
The TGI was 3620 nM.

What about the GI50 (HOP-92 NSCLC) of the same molecule?
Its GI50 is 471 nM.

What about the TGI (HOP-92 NSCLC) of the same molecule?
The TGI was 2250 nM.

What about the GI50 (HS 578T breast) of the same molecule?
Its GI50 is 1620 nM.

What about the TGI (HS 578T breast) of the same molecule?
The TGI was 4530 nM.

What about the GI50 (HT29 colon) of the same molecule?
The GI50 was 535 nM.

And the TGI (HT29 colon)?
The TGI was 2230 nM.

And the GI50 (IGROV1 ovarian)?
Its GI50 is 2120 nM.

What about the TGI (IGROV1 ovarian) of the same molecule?
Its TGI is 6430 nM.

What about the GI50 (K-562 leukemia) of the same molecule?
The GI50 was 414 nM.

What about the TGI (K-562 leukemia) of the same molecule?
The TGI was 2110 nM.

And the GI50 (KM12 colon)?
The GI50 was 2700 nM.

And the TGI (KM12 colon)?
Its TGI is 8460 nM.

What about the GI50 (LOX IMVI melanoma) of the same molecule?
Its GI50 is 1670 nM.

What about the TGI (LOX IMVI melanoma) of the same molecule?
Its TGI is 3110 nM.

And the GI50 (M14 melanoma)?
The GI50 was 1600 nM.

And the TGI (M14 melanoma)?
Its TGI is 3230 nM.

What about the GI50 (MALME-3M melanoma) of the same molecule?
Its GI50 is 1570 nM.

What about the TGI (MALME-3M melanoma) of the same molecule?
The TGI was 3070 nM.

What about the GI50 (MCF7 breast) of the same molecule?
The GI50 was 1630 nM.

And the TGI (MCF7 breast)?
Its TGI is 4660 nM.

What about the GI50 (MDA-MB-231 breast) of the same molecule?
The GI50 was 1610 nM.

And the TGI (MDA-MB-231 breast)?
Its TGI is 3190 nM.

And the GI50 (MDA-MB-435)?
The GI50 was 1620 nM.

What about the TGI (MDA-MB-435) of the same molecule?
The TGI was 3080 nM.

And the GI50 (MOLT-4 leukemia)?
Its GI50 is 1760 nM.

What about the TGI (MOLT-4 leukemia) of the same molecule?
Its TGI is 5810 nM.

And the GI50 (NCI-H226 lung)?
Its GI50 is 1510 nM.

And the TGI (NCI-H226 lung)?
The TGI was 3600 nM.

And the GI50 (NCI-H23 lung)?
The GI50 was 2450 nM.

And the TGI (NCI-H23 lung)?
Its TGI is 8170 nM.

And the GI50 (NCI-H460 lung)?
The GI50 was 2130 nM.

And the TGI (NCI-H460 lung)?
Its TGI is 4870 nM.

What about the GI50 (NCI-H522 lung) of the same molecule?
Its GI50 is 2100 nM.

And the TGI (NCI-H522 lung)?
Its TGI is 4470 nM.

And the GI50 (NCI/ADR-RES ovarian)?
The GI50 was 2760 nM.

And the TGI (NCI/ADR-RES ovarian)?
The TGI was 10700 nM.

What about the GI50 (OVCAR-3 ovarian) of the same molecule?
The GI50 was 1670 nM.

What about the TGI (OVCAR-3 ovarian) of the same molecule?
Its TGI is 3520 nM.

What about the GI50 (OVCAR-4 ovarian) of the same molecule?
Its GI50 is 2640 nM.

And the TGI (OVCAR-4 ovarian)?
The TGI was 12700 nM.

And the GI50 (OVCAR-5 ovarian)?
Its GI50 is 2190 nM.

What about the TGI (OVCAR-5 ovarian) of the same molecule?
The TGI was 6590 nM.

What about the GI50 (OVCAR-8 ovarian) of the same molecule?
The GI50 was 2690 nM.

And the TGI (OVCAR-8 ovarian)?
Its TGI is 10000 nM.

What about the GI50 (PC-3 prostate) of the same molecule?
The GI50 was 1930 nM.

And the TGI (PC-3 prostate)?
The TGI was 5160 nM.

And the GI50 (RPMI-8226 leukemia)?
Its GI50 is 1350 nM.

And the TGI (RPMI-8226 leukemia)?
The TGI was 3640 nM.

And the GI50 (RXF 393 renal)?
Its GI50 is 1320 nM.

What about the TGI (RXF 393 renal) of the same molecule?
The TGI was 3230 nM.

And the GI50 (SF-268 CNS)?
Its GI50 is 1820 nM.

What about the TGI (SF-268 CNS) of the same molecule?
The TGI was 4380 nM.

And the GI50 (SF-295 CNS)?
Its GI50 is 1970 nM.

And the TGI (SF-295 CNS)?
The TGI was 3860 nM.

What about the GI50 (SF-539 CNS) of the same molecule?
Its GI50 is 1510 nM.

And the TGI (SF-539 CNS)?
The TGI was 3000 nM.

And the GI50 (SK-MEL-2 melanoma)?
The GI50 was 1840 nM.

And the TGI (SK-MEL-2 melanoma)?
The TGI was 3550 nM.

And the GI50 (SK-MEL-5 melanoma)?
Its GI50 is 1680 nM.

And the TGI (SK-MEL-5 melanoma)?
The TGI was 3100 nM.

What about the GI50 (SK-OV-3 ovarian) of the same molecule?
The GI50 was 2150 nM.

And the TGI (SK-OV-3 ovarian)?
The TGI was 4500 nM.

And the GI50 (SN12C renal)?
The GI50 was 2080 nM.

And the TGI (SN12C renal)?
Its TGI is 8210 nM.

And the GI50 (SNB-19 CNS)?
The GI50 was 2910 nM.

And the TGI (SNB-19 CNS)?
The TGI was 10000 nM.

What about the GI50 (SNB-75 CNS) of the same molecule?
Its GI50 is 1270 nM.

And the TGI (SNB-75 CNS)?
Its TGI is 3310 nM.

And the GI50 (SR leukemia)?
Its GI50 is 290 nM.

What about the TGI (SR leukemia) of the same molecule?
The TGI was 1030 nM.

What about the GI50 (SW-620 colon) of the same molecule?
The GI50 was 1850 nM.

What about the TGI (SW-620 colon) of the same molecule?
Its TGI is 3960 nM.

What about the GI50 (T-47D breast) of the same molecule?
Its GI50 is 1810 nM.

What about the TGI (T-47D breast) of the same molecule?
The TGI was 4900 nM.

What about the GI50 (TK-10 renal) of the same molecule?
Its GI50 is 2980 nM.

What about the TGI (TK-10 renal) of the same molecule?
The TGI was 7970 nM.

And the GI50 (U251 CNS)?
Its GI50 is 1410 nM.

And the TGI (U251 CNS)?
The TGI was 3160 nM.

What about the GI50 (UACC-257 melanoma) of the same molecule?
The GI50 was 1830 nM.

And the TGI (UACC-257 melanoma)?
The TGI was 4040 nM.

What about the GI50 (UACC-62 melanoma) of the same molecule?
Its GI50 is 1850 nM.

What about the TGI (UACC-62 melanoma) of the same molecule?
The TGI was 3330 nM.

And the GI50 (UO-31 renal)?
Its GI50 is 1420 nM.

And the TGI (UO-31 renal)?
The TGI was 2750 nM.

— PubChem BioAssay (NCI)
